One block for each compound: values may come before it.
Columns and labels:
[1] = tested on: Sprague-Dawley (SPD) rats; assay: Elevated plus maze (EPM) after 83 days chronic feeding, Study 1; format: in vivo, rat; details: compared to control (SD)
Protocol: Generally, exogenous ketone supplements were tested and fed chronically for 83 days and administered sub-chronically for 7 days by gavage, followed by assessment of anxiety measures on elevated plus maze (EPM) on 97 male SPD rats.
(§1) In order to familiarize the animals to the intragastric gavage method, tap water was gavaged for 5 days before ketone supplementation. A total of 48 male SPD rats were fed for 83 days with either standard rodent chow (SD)+water application (˜25 g/kg b.w. water/day) (SD/control group; n=9) or SD+ketone supplementation by gavage.
EPM (COULBOURN Instruments) was used to assess anxiety-related behavior of the rats after 83 days of chronic feeding or after 7 days of oral gavage. EPM experiments were carried out under non-stressful conditions (in a dimly lit and quiet room) between 12.00 and 14.00 hours.
The rats were transferred in their home cage to the experimental room 30 min prior to beginning the experiment. Briefly, rats were placed in the intersection of the four arms of the EPM, facing the open arm opposite to where the experimenter was and their behavior was recorded for 5 minutes. The amount of time spent and number of entries made on the open arms, closed arms and the center zones were recorded. Latency to entry into the closed arms and the distance travelled in each zones was also measured in chronically treated SPD rats. Notes were made on other ethological measures such as number of rears, head dips, fecal boli, and freezing, or stretched-attend postures.
At the end of the 5-minute test the rats were removed from the maze and placed back into their home cage. The maze was cleaned with 70% alcohol and after it with tap water and dried with paper towel between rats. The primary method for data collection was a video-tracking system with computer interface and video camera (SMART V3.0 PLATFORM, PANLAB, Harvard Apparatus, USA), to automatically collect behavioral data in SPD rats. A blinded observer was present in the testing room separated from the maze by a curtain, and manually collected EPM data in both SPD and WAG/Rij animals at the end of treatments.
(§2) All data are presented as the mean±standard error of the mean (SEM). The effects of ketone supplementations on anxiety level were compared, as well as on blood βHB and glucose levels to control or/and baseline levels. Data analysis was performed using GraphPad PRISM version 6.0a. Results were considered significant when p<0.05. Significance was determined by unpaired t-test. Blood ketone, blood glucose, and body weight change were compared using a two-way ANOVA with Tukey's multiple comparisons test and unpaired t-test.

[2] = Blood βHB and glucose levels (PRECISION XTRA), SPD rats, Study 1; details: for Glucose, Mean Diff., Tukey's multiple comparisons test (Compare S-D to WagRij) / βHB, Mean Diff., Tukey's multiple comparisons test (Compare S-D to WagRij): S-D (SPD) rats, own Baseline minus 7 days of the same group; for Blood glucose levels: at 24 hours; for Blood βHB (90 days), Mean Diff., Tukey's multiple comparisons test: chronic feeding, After:SD (control) minus After:treated group
Protocol: as §1
In the chronic feeding study, blood βHB and glucose levels were measured 24 hours before the 1st day of ketone treatments (baseline levels) and after the 13th week of ketone treatment. In the 7-day oral gavage studies, blood βHB and glucose levels were measured 24 hours before the 1st day of ketone treatments (baseline levels; SPD and WAG/Rij rats) and after the 1st day (SPD rats) and the 7th day (SPD and WAG/Rij rats) of ketone gavaging. In acute study, blood βHB and glucose levels were measured 40 min after ketone treatment. Whole blood samples (10 μL) were taken from the saphenous vein for analysis of blood glucose (mg/dl) and βHB (mmol/1) levels with the commercially available glucose and ketone monitoring system PRECISION XTRA™ (ABBOTT Laboratories, Abbott Park, Ill., USA). The PRECISION XTRA™ ketone monitoring system only measures βHB blood levels; therefore, total blood ketone levels would be higher than measured.
as §2

[3] = Body weight, SPD rats, Study 1; format: in vivo, rat; details: for Body Weight (7 days), Mean Diff., Tukey's multiple comparisons test: in g (unit assumed)
Protocol: The body weight of all animals was recorded before ketone treatments started (before) and after the last ketone treatments (after).
Results were considered significant when p<0.05. […]

[4] = Blood βHB and glucose levels (Precision Xtra), SPD rats, Study 3
From the text: A total of 48 male SPD rats were fed for 83 days with either standard rodent chow (2018 Teklad Global 18% Protein Rodent Diet (#2018), Harlan) (SD/control; n=9) or SD+ketone supplementation. […] Higher dose was used for chronic administration, as the rats were consuming food-integrated ketone supplementation throughout the day, not at a single time point.
In order to familiarize the animals to the intragastric gavage method, water was gavaged for 5 days prior to ketone supplementation.
In the chronic feeding study, blood βHB and glucose levels were measured 24 hours before the 1st day of ketone treatments (baseline levels) and at the 13th week after the EPM experiment. In the 7-day oral gavage studies, blood βHB and glucose levels were measured 24 hours before the 1st day of ketone treatments (baseline levels; SPD and WAG/Rij rats), 24 hours after the first gavage, and 60 min after gavage on the 7th day (SPD and WAG/Rij rats). Whole blood samples (10 μL) were taken from the saphenous vein for analysis of blood glucose (mg/dl) and βHB (mmol/1) levels with the commercially available glucose and ketone (βHB) monitoring system Precision Xtra™ (Abbott Laboratories, Abbott Park, Ill., USA).
as §2, with “anxiety-related behavior” for “anxiety level”, “one-way ANOVA with Fisher s LSD test for the behavioral data.” for “unpaired t-test.”, “test.” for “test and unpaired t-test.”

[5] = SPD rats, 7 days of gavaging, compared to baseline
[6] = SPD rats, after 83 days of chronic feeding, compared to control
[7] = SPD rats, 24h:SD (control) minus 24h:treated group
[8] = After:SD (control) minus After:treated group

Compound: CC(=O)CC(=O)OCCC(C)OC(=O)CC(C)=O (centres unmarked) [KE, 1,3-butanediol-acetoacetate diester]
Distance traveled in the closed arms ([1]; chronic feeding 83 days): significantly less
Latency to first entrance of closed arms ([1]; chronic feeding 83 days): significantly greater
Glucose, Mean Diff., Tukey's multiple comparisons test (Compare S-D to WagRij) [2]: -1.841 mg/dL
βHB, Mean Diff., Tukey's multiple comparisons test (Compare S-D to WagRij) [2]: −0.1389 mmol/1
Blood βHB levels ([2]; SPD rats, 24 hours after a single gavage, compared to baseline): elevated
Blood βHB [2, 5]: did not change
Blood βHB [2, 6]: elevated
Blood glucose levels ([2]; SPD rats, compared to baseline): lower
Blood glucose levels ([2]; SPD rats, compared to control group): lower
Blood βHB (90 days), Mean Diff., Tukey's multiple comparisons test ([2]; SPD rats): −0.2978 mmol/1
Blood glucose ([2]; SPD rats, from baseline to 7 days): did not change
Blood Glucose (7 days), Mean Diff., Tukey's multiple comparisons test [2, 7]: 33.11 mg/dL
Blood βHB (7 days), Mean Diff., Tukey's multiple comparisons test [2, 7]: −0.5235 mmol/1
Blood Glucose (7 days), Mean Diff., Tukey's multiple comparisons test ([2]; SPD rats, 24h minus 7days of the same group): -23.02 mg/dL
Blood Glucose (7 days), Mean Diff., Tukey's multiple comparisons test ([2]; SPD rats, own Baseline minus 24h of the same group): 21.18 mg/dL
Body Weight (7 days), Mean Diff., Tukey's multiple comparisons test [3, 8]: 37.03
Body weight ([3]; after chronic feeding (week 13), compared to control, listed as SD+LKE): higher
Body Weight (90 days), Mean Diff., Tukey's multiple comparisons test ([3]; chronic feeding, After:SD (control) minus After:treated group): 73.96
Blood βHB levels ([4]; SPD rats, 24 hours after a single gavage, compared to control): elevated
Blood glucose ([4]; SPD rats, after 13 weeks of chronic feeding): lower
Blood βHB levels [4, 6]: significantly elevated
Blood glucose levels ([4]; SPD rats, sub-chronic, at 24 hours, compared to control): lower

βHB, Mean Diff., Tukey's multiple comparisons test (Compare S-D to WagRij) [2]: −0.4455 mmol/1
Blood βHB [2, 5]: significant difference
Blood βHB [2, 6]: elevated
Blood βHB (90 days), Mean Diff., Tukey's multiple comparisons test ([2]; SPD rats): −0.3653 mmol/1
Blood βHB (7 days), Mean Diff., Tukey's multiple comparisons test ([2]; SPD rats, 7days:SD (control) minus 7days:treated group): −0.547 mmol/1
Blood βHB ([4]; rat, in vivo): elevated
Compound: Na^+/K^+-βHB mineral salt [KS]
Time spent in the open arms ([1]; chronic feeding 83 days (~25 g/kg b.w./day; LKE ~10)): significantly more
Distance traveled in the center ([1]; chronic feeding 83 days): more
Distance traveled in the closed arms ([1]; chronic feeding 83 days): significantly less
Distance traveled in the open arms ([1]; chronic feeding 83 days): significantly greater
Latency to first entrance of closed arms ([1]; chronic feeding 83 days): significantly greater
Time spent in the center ([1]; chronic feeding 83 days): significantly more
Time spent in the closed arms ([1]; chronic feeding 83 days): significantly less
Glucose, Mean Diff., Tukey's multiple comparisons test (Compare S-D to WagRij) [2]: -0.3258 mg/dL
Blood glucose levels ([2]; SPD rats, compared to baseline): lower
Body Weight (7 days), Mean Diff., Tukey's multiple comparisons test [3, 8]: 48.25
